From patent US9504676B2, “Molecules inhibiting a metabolic pathway involving the Syk protein tyrosine kinase and method for identifying said molecules” (CENTRE NATIONAL DE LA RECHERCHE SCIENTIFIQUE, priority 2008, dated 2016)
Values after ≈ are worked out from the molar mass of the structure shown. Where two headings read alike, the source gives them in different places.

Tests used:
[1] = system: BMMC cells; experiment: C-13 toxicity test on BMMC cells (Annexin-V and Propidium Iodide); type: cell-based; conditions: Staurosporine, 3 hours
Description: FIG. 10. Toxicity test of C-13 on BMMC cells. The BMMC cells were incubated at 37° C. in the presence of 2.5 μM or 5 μM of C-13, 0.25% DMF or Staurosporine. The percentages of live BMMC cells after 3 hours and after 5 days were detected by means of double Annexin-V and Propidium Iodide labelling. The viability of BMMC cells incubated in the presence of 2.5 μM or 5 μM of C-13 or 0.25% DMF was not affected to noteworthy degree after 3 hours (78%, 74% and 79% respectively) or five days (62, 56 and 57%, respectively). On the other hand, the viability of BMMC cells treated under the same conditions with Staurosporine was reduced to a level of 16% after only 3 hours.
• 1) Chemical products and antibodies. A chemical bank of 3000 molecules (a varied subset) was acquired from ChemBridge, Inc. (San Diego, Calif.). Stocks of solutions of small molecules were prepared at a rate of 10 mM in DMSO (dimethylsulphoxide), except for C-13 (methyl 2-{5-[(3-benzyl-4-oxo-2-thioxo-1,3-thiazolidin-5-ylidene)methyl]-2-furyl}benzoate, ChemBridge ID No. 6197026) prepared in DMF (dimethylformamide). Unless specified otherwise, all the reagents were supplied by Sigma. Dinitrophenyl (DNP) hapten was acquired from Calbiochem. Sepharose GammaBind G and all the secondary antibodies were supplied by GE Health Amersham Biosciences. The anti-Syk, anti-Lyn, anti-Btk, anti-PLC-γ1, anti-PLC-γ2, anti-LAT, anti-SLP-76, anti-p38, anti-JNK, anti-Vav, anti-Akt1 and 9E10 antibodies conjugated with HRP were acquired from Santa Cruz Biotechnology. The anti-phospho-p44/42 MAP Kinase, anti-p44/42 MAP Kinase, anti-phospho-p38, anti-phospho-JNK, anti-phospho-Akt1 antibodies were acquired from Cell Signaling. The anti-phospho-LAT and anti-phospho-PLC-γ1 antibodies were supplied by Biosource and the anti-phospho-SLP-76 antibodies by BD Pharmingen. The 4G10 anti-phosphotyrosine monoclonal antibody was acquired from Upstate Biotechnology. • 2) ADA method: ELISA type high-speed molecule screening test, based on antibody displacement (WO 2005106481). The recombinant fusion protein GST:Syk 6-242^8 comprising the residues 6 to 242 of murine Syk tyrosine kinase protein illustrated in FIG. 8B (SEQ ID No. 4) was immobilised on an ELISA plate at a final concentration of 10 μg ml^−1. For the screening of the chemical molecule bank, the small molecules, diluted in PBS at a final concentration of 10 μM were added to the wells for one hour at ambient temperature, before adding the fragment scFv G4G11 at a final concentration of 100 nM for an additional hour. The binding of G4G11 with Syk was assessed by adding the 9E10 monoclonal antibody conjugated with HRP detecting the amino acid sequence EQKLISEEDLN of human c-myc protein located at the C-terminal end of the scFv fragment. To generate Syk mutants, targeted mutagenesis was used on GST:Syk 6-242 protein and the binding of G4G11 with the mutants was assessed in the presence of 5 μM of C-13. • 3) Cells, culture conditions and functional tests. Anti-DNP 2682-I mouse monoclonal antibody was used as the culture supernatant of hybridomas containing 1 μg/ml of IgE. Femoral bone marrow cells were sampled and cultured in Opti-MEM medium (Gibco) supplemented with 10% foetal calf serum and 4% X63 transfectant supernatant secreting murine IL-3. RBL-2H3 (ATCC) leukaemic rat basophil cells were maintained in a single-layer culture in RPMI 1640 medium supplemented with 10% foetal calf serum (Gibco). […]

[2] = system: RBL-2H3 cells; experiment: cells; type: cell-based, rat; conditions: Rattus norvegicus
In short: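 RBL-2H3 rat basophils sensitized 12-16 h with anti-DNP IgE (0.5 μg/ml), pretreated 90 min at 37° C with compound (DMF 0.25% vehicle), then stimulated 45 min with DNP-BSA (50 ng ml^−1) or ionomycin (1.5 μM). Degranulation read as β-hexosaminidase release.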

[3] = biological target: T1, murine Syk tyrosine kinase protein (GST:Syk 6-242) (Mus musculus, UniProt P48025); experiment: ADA method: displacement of the binding of scFv G4G11 with Syk (ELISA); conditions: read-out: In vit. inhib.: mean inhibition % of the binding of scFv G4G11 with Syk in the ADA method
T1 construct: made in house
In short: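 GST:Syk 6-242 (murine) was immobilised at 10 μg ml^−1 and pre-incubated 1 h at ambient temperature with compounds at 10 μM final in PBS. scFv G4G11 was then added at 100 nM for 1 h. Bound scFv was detected via its C-terminal c-myc tag with HRP-9E10, and % inhibition was taken from signals with versus without compound.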

[4] = RBL-2H3 cells, read-out: Degran. IC50: concentration inhibiting mast cell degranulation by 50%
[5] = small molecules at 10 μM, scFv G4G11 100 nM

IC50 [2, 4]	inhibition at 10 µM [3, 5]	SMILES	percentage of live BMMC cells [1]	IC50 ([2]; RBL-2H3, read-out: Degran. IC50: concentration inhibiting mast cell degranulation by 50%)	inhibition at 10 µM [3]
–	–	CN[C@@H]1C[C@H]2O[C@@](C)([C@@H]1OC)n1c3ccccc3c3c4c(c5c6ccccc6n2c5c31)C(=O)NC4 [Staurosporine, reference compound]	16%	–	–
> 10 µg/mL	27.5%	COc1cccc(C2C(C(=O)c3ccccc3)=C(O)C(=O)N2CCCN2CCOCC2)c1OC (stereo not drawn) [Molecule 74, 4-benzoyl-5-(2,3-dimethoxyphenyl)-3-hydroxy-1-(3-(4-morpholinyl)propyl]-1,5-dihydro-2H-pyrrol-2-one]	–	–	–
> 10 µg/mL	46.5%	CN(C)CCCN1C(=O)C(O)=C(C(=O)c2ccc(S(=O)(=O)N(C)C)cc2)C1c1ccc(Cl)c(Cl)c1 (stereo not drawn) [Molecule 50, 4-({2-(3,4-dichlorophenyl)-1-[3-(dimethylamino)propyl]-4-hydroxy-5-oxo-2,5-dihydro-1H-pyrrol-3-yl}carbonyl)-N,N-dimethylbenzenesulphonamide]	–	–	–
> 10 µg/mL	50%	COc1ccc(C2C(C(=O)c3ccco3)=C(O)C(=O)N2CCN2CCOCC2)cc1OC (stereo not drawn) [Molecule 35, 5-(3,4-dimethoxyphenyl)-4-(2-furoyl)-3-hydroxy-1-[2-(4-morpholinyl)ethyl]-1,5-dihydro-2H-pyrrol-2-one]	–	–	–
> 10 µg/mL	26%	COC(=O)c1ccc(NC(=O)CC2C(=O)N(c3ccccc3)C(=O)N2Cc2ccc3c(c2)OCO3)cc1 (stereo not drawn) [Molecule 77, methyl 4-({[3-(1,3-benzodioxol-5-ylmethyl)-2,5-dioxo-1-phenyl-4-imidazolidinyl]acetyl}amino)benzoate]	–	–	–
> 10 µg/mL	49%	COc1ccc(C)cc1NC(=O)CN(c1ccc(C)cc1)S(=O)(=O)c1ccc(OC)c(OC)c1 [Molecule 42]	–	–	–
> 10 µg/mL	50%	COc1ccc(C2C(C(=O)c3ccc(C)cc3)=C(O)C(=O)N2CCN2CCOCC2)c(OC)c1 (stereo not drawn) [Molecule 34]	–	–	–
> 10 µg/mL	67.5%	COc1ccc(C(=O)C2=C(O)C(=O)N(CCN3CCOCC3)C2c2cccnc2)c(C)c1 (stereo not drawn) [Molecule 14, 3-hydroxy-4-(4-methoxy-2-methylbenzoyl)-1-[2-(4-morpholinyl)ethyl]-5-(3-pyridinyl)-1,5-dihydro-2H-pyrrol-2-one]	–	–	–
> 10 µg/mL	67%	COC(=O)c1sc(N2C(=O)C(O)=C(C(=O)c3ccccc3)C2c2ccc(C)cc2)nc1C (stereo not drawn) [Molecule 16, methyl 2-[3-benzoyl-4-hydroxy-2-(4-methylphenyl)-5-oxo-2,5-dihydro-1H-pyrrol-1-yl]-4-methyl-1,3-thiazole-5-carboxylate]	–	–	–
~5 µg/mL (≈ 11.1 µM)	30%	COc1ccc(NC(=O)CSc2nc3ccccc3c(=O)n2Cc2ccco2)c(OC)c1 [Molecule 69]	–	–	–
> 10 µg/mL	50%	CN(C)S(=O)(=O)c1ccc(C(=O)C2=C(O)C(=O)N(CCN3CCOCC3)C2c2ccccc2)cc1 (stereo not drawn) [Molecule 32, 4-({4-hydroxy-1-[2-(4-morpholinyl)ethyl]-5-oxo-2-phenyl-2,5-dihydro-1H-pyrrol-3-yl}carbonyl)-N,N-dimethylbenzenesulphonamide]	–	–	–
~5 µg/mL (≈ 9.7 µM)	42.5%	CCOC(=O)C1=C(c2ccccc2)NC(SCC(=O)Nc2cccc(OC)c2)=C(C#N)C1c1ccco1 (stereo not drawn) [Molecule 55, ethyl 5-cyano-4-(2-furyl)-6-({2-[(3-methoxyphenyl)amino]-2-oxoethyl}thio)-2-phenyl-1,4-dihydro-3-pyridine carboxylate]	–	–	–
> 10 µg/mL	28%	COc1ccc(C2(CNC(=O)c3ccc(NC(=O)c4ccco4)cc3)CCOCC2)cc1 [Molecule 73, N-{4-[({[4-(4-methoxyphenyl)tetrahydro-2H-pyran-4-yl]methyl}amino)carbonyl]phenyl}-2-furamide]	–	–	–
> 10 µg/mL	50%	COc1ccc(C2C(C(=O)c3ccc(F)cc3)=C(O)C(=O)N2CCN2CCOCC2)c(OC)c1 (stereo not drawn) [Molecule 33]	–	–	–
> 10 µg/mL	71%	O=C(C1=C(O)C(=O)N(Cc2cccnc2)C1c1cccc(Oc2ccccc2)c1)c1ccc(F)cc1 (stereo not drawn) [Molecule 9, 4-(4-fluorobenzoyl)-3-hydroxy-5-(3-phenoxyphenyl)-1-(3-pyridinylmethyl)-1,5-dihydro-2H-pyrrol-2-one]	–	–	–
> 10 µg/mL	29%	COc1cccc(C2C(C(=O)c3ccc(Cl)cc3)=C(O)C(=O)N2CCN2CCOCC2)c1 (stereo not drawn) [Molecule 71, 4-(4-chlorobenzoyl)-3-hydroxy-5-(3-methoxyphenyl)-1-[2-(4-morpholinyl)ethyl]-1,5-dihydro-2H-pyrrol-2-one]	–	–	–
~5 µg/mL (≈ 10.6 µM)	38.5%	CSc1nnc2c(n1)OC(c1cccc(OCc3ccccc3)c1)N(C(C)=O)c1ccccc1-2 (stereo not drawn) [Molecule 63, 7-acetyl-6-[3-(benzyloxy)phenyl]-3-(methylthio)-6,7-dihydro [1,2,4] triazino[5,6-d][3,1] benzoxazepine]	–	–	–
–	–	Cc1cc(C)cc(N(CC(=O)N2CCN(Cc3ccccc3)CC2)S(=O)(=O)c2ccccc2)c1 [Molecule 40, N-[2-(4-benzyl-1-piperazinyl)-2-oxoethyl]-N-(3,5-dimethylphenyl)benzenesulphonamide]	–	> 10 µg/mL	49.5%
> 10 µg/mL	48.5%	O=C(C1=C(O)C(=O)N(CCCN2CCOCC2)C1c1ccccc1F)c1ccc(Cl)cc1 (stereo not drawn) [Molecule 44, 4-(4-chlorobenzoyl)-5-(2-fluorophenyl)-3-hydroxy-1-[3-(4-morpholinyl)propyl]-1,5-dihydro-2H-pyrrol-2-one]	–	–	–
> 10 µg/mL	60%	Cc1cccc(OCC(=O)Nc2cccc3c(NC(=O)COc4cccc(C)c4)cccc23)c1 [Molecule 20]	–	–	–
> 10 µg/mL	37.5%	COc1cccc2cc(C(=O)C3=C(O)C(=O)N(CCCn4ccnc4)C3c3ccccn3)oc12 (stereo not drawn) [Molecule 64]	–	–	–
> 10 µg/mL	71%	COc1cc(C2C(C(=O)c3cccs3)=C(O)C(=O)N2CCc2ccccc2)cc(Br)c1O (stereo not drawn) [Molecule 8, 5-(3-bromo-4-hydroxy-5-methoxyphenyl)-3-hydroxy-1-(2-phenylethyl)-4-(2-thienylcarbonyl)-1,5-dihydro-2H-pyrrol-2-one]	–	–	–

SMILES	IC50 [2, 4]	inhibition at 10 µM [3, 5]	percentage of live BMMC cells [1]	IC50 ([2]; RBL-2H3, read-out: Degran. IC50: concentration inhibiting mast cell degranulation by 50%)	inhibition at 10 µM [3]
O=C(Nc1cccc2ccccc12)OCCn1nnnc1C1(N2CCOCC2)CCCCC1 [Molecule 76, 2-{5-[1-(4-morpholinyl)cyclohexyl]-1H-tetrazol-1-yl}ethyl 1-naphthylcarbamate]	> 10 µg/mL	27%	–	–	–
